Test results taken from the supplement of paper PMC10307832.

These cell lines were tested with O=c1ncccn1[C@@H]1O[C@H](CO)[C@@H](O)[C@H]1O [Zebularine] + CS(=O)(=O)N1CCN(Cc2cc3nc(-c4cccc5[nH]ncc45)nc(N4CCOCC4)c3s2)CC1 [Pictilisib] (partner 1 µM) (assay: relative viability (nuclei count vs DMSO), 5 days (fraction); higher = more cells survive). Details: first compound 31.62 µM.
Procedure, shortened: (§1)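 Cells from lung cancer lines were seeded into 1536-well plates and, one day later, dosed by pin tool. Treatments were either a single drug or a fixed dose of an anchor drug with five library-drug doses (not always all listed) in √10 steps. After 5 days, nuclei were stained in a one-step fixation (final 0.05% Triton X-100, 1% formaldehyde, 1 ug/ml Hoechst) and counted on 4× images, and relative viability is the treated-to-vehicle nuclei ratio, as the median of duplicate plates.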
NCI-H2170 showed a relative viability of 0.322.
Work on NCI-H2405 yielded a relative viability of 0.387.
A549 showed a relative viability of 0.619.
With NCI-H2009 the relative viability was 0.68.
Work on NCI-H661 yielded a relative viability of 0.354.
With SK-LU-1 the relative viability was 0.501.
NCI-H1299 gave a relative viability of 0.739.
CAL-12T showed a relative viability of 0.482.
NCI-H2228 was tested, and the relative viability was 0.329.
NCI-H2023 showed a relative viability of 0.272.
For NCI-H1563, the relative viability was 0.674.

Same assay, conditions: first compound 100 µM
NCI-H727 gave a relative viability of 0.353.
NCI-H1650 was tested, and the relative viability was 0.488.
EBC-1 gave a relative viability of 0.303.
NCI-H1703 showed a relative viability of 0.239.
For NCI-H1993, the relative viability was 0.847.
With SW 1573 the relative viability was 0.377.
In the case of NCI-H838, the relative viability is reported as 0.303.
Work on LCLC-103H yielded a relative viability of 0.553.
Cell Line NCI-H520 has a relative viability of 0.152.
Work on NCI-H2126 yielded a relative viability of 0.43.
Cell Line EMC-BAC-2 has a relative viability of 0.546.
NCI-H2085 was tested, and the relative viability was 0.343.
Calu-6 showed a relative viability of 0.218.
For HCC-366, the relative viability was 0.124.
For NCI-H1666, the relative viability was 0.311.
With NCI-H596 the relative viability was 0.362.
Cell Line LK-2 has a relative viability of 0.36.
Work on NCI-H2087 yielded a relative viability of 0.368.
In the case of SK-MES-1, the relative viability is reported as 0.203.
With H3255 the relative viability was 0.457.
COR-L23 gave a relative viability of 0.24.
With COR-L 105 the relative viability was 0.41.
Cell Line IA-LM has a relative viability of 0.292.
LOU-NH91 was tested, and the relative viability was 0.451.
Cell Line ChaGo-K-1 has a relative viability of 0.27.
In the case of NCI-H2170, the relative viability is reported as 0.243.
In the case of NCI-H2405, the relative viability is reported as 0.409.
In the case of A549, the relative viability is reported as 0.209.
NCI-H2009 gave a relative viability of 0.37.
Cell Line NCI-H661 has a relative viability of 0.395.
SK-LU-1 showed a relative viability of 0.31.
With NCI-H1299 the relative viability was 0.264.
CAL-12T was tested, and the relative viability was 0.364.
With NCI-H2228 the relative viability was 0.251.
Cell Line NCI-H2023 has a relative viability of 0.201.
In the case of NCI-H1563, the relative viability is reported as 0.706.

Each cell line was assayed with O=c1ncccn1[C@@H]1O[C@H](CO)[C@@H](O)[C@H]1O [Zebularine] + Nc1ncn([C@H]2C[C@H](O)[C@@H](CO)O2)c(=O)n1 [Decitabine] (partner 2 µM) in the same assay as above. Details: first compound 1 µM.
Procedure, shortened: as §1
For NCI-H2342, the relative viability was 0.744.
NCI-H727 showed a relative viability of 0.855.
With NCI-H1650 the relative viability was 0.347.
Work on NCI-H1993 yielded a relative viability of 0.639.
Work on SW 1573 yielded a relative viability of 0.525.
NCI-H838 was tested, and the relative viability was 0.504.
Cell Line LCLC-103H has a relative viability of 0.801.
With NCI-H520 the relative viability was 0.552.
Work on NCI-H2126 yielded a relative viability of 0.582.
With EMC-BAC-2 the relative viability was 1.03.
Work on NCI-H2085 yielded a relative viability of 0.543.
HCC-366 showed a relative viability of 0.412.
With NCI-H1666 the relative viability was 0.8.
NCI-H596 was tested, and the relative viability was 0.84.
With LK-2 the relative viability was 0.34.
With NCI-H2087 the relative viability was 0.322.
Cell Line NCI-H1648 has a relative viability of 0.456.
SK-MES-1 was tested, and the relative viability was 0.442.
Cell Line H3255 has a relative viability of 0.687.
For COR-L23, the relative viability was 0.407.
COR-L 105 was tested, and the relative viability was 0.642.
LOU-NH91 gave a relative viability of 0.842.
ChaGo-K-1 was tested, and the relative viability was 0.534.
NCI-H2170 gave a relative viability of 0.48.
NCI-H2405 was tested, and the relative viability was 0.731.
Cell Line A549 has a relative viability of 0.219.
Work on NCI-H522 yielded a relative viability of 0.621.
SW 900 was tested, and the relative viability was 0.512.
NCI-H2009 showed a relative viability of 0.386.
NCI-H661 showed a relative viability of 0.564.
For SK-LU-1, the relative viability was 0.583.
NCI-H2023 gave a relative viability of 0.243.

Same assay, conditions: first compound 3.162 µM
With NCI-H2342 the relative viability was 0.749.
With NCI-H727 the relative viability was 0.903.
NCI-H1650 gave a relative viability of 0.305.
NCI-H1993 showed a relative viability of 0.602.
Cell Line SW 1573 has a relative viability of 0.424.
NCI-H838 was tested, and the relative viability was 0.49.
For LCLC-103H, the relative viability was 0.727.
NCI-H520 showed a relative viability of 0.49.
In the case of NCI-H2126, the relative viability is reported as 0.629.
For EMC-BAC-2, the relative viability was 1.
Work on NCI-H2085 yielded a relative viability of 0.506.
HCC-366 gave a relative viability of 0.336.
NCI-H1666 showed a relative viability of 0.736.
NCI-H596 was tested, and the relative viability was 1.07.
LK-2 showed a relative viability of 0.338.
For NCI-H2087, the relative viability was 0.294.
Cell Line NCI-H1648 has a relative viability of 0.478.
Cell Line SK-MES-1 has a relative viability of 0.397.
H3255 showed a relative viability of 0.615.
In the case of COR-L23, the relative viability is reported as 0.368.
In the case of COR-L 105, the relative viability is reported as 0.696.
LOU-NH91 gave a relative viability of 0.802.
In the case of ChaGo-K-1, the relative viability is reported as 0.566.
NCI-H2170 was tested, and the relative viability was 0.423.
NCI-H2405 was tested, and the relative viability was 0.699.
With A549 the relative viability was 0.251.
With NCI-H522 the relative viability was 0.577.
Work on SW 900 yielded a relative viability of 0.4.
NCI-H2009 showed a relative viability of 0.36.
Cell Line NCI-H661 has a relative viability of 0.551.
With SK-LU-1 the relative viability was 0.652.
With NCI-H2023 the relative viability was 0.22.

Same assay, conditions: first compound 10 µM
NCI-H2342 showed a relative viability of 0.699.
NCI-H727 gave a relative viability of 0.867.
Cell Line NCI-H1650 has a relative viability of 0.335.
Cell Line NCI-H1993 has a relative viability of 0.506.
SW 1573 was tested, and the relative viability was 0.341.
NCI-H838 showed a relative viability of 0.489.
LCLC-103H gave a relative viability of 0.713.
With NCI-H520 the relative viability was 0.399.
NCI-H2126 showed a relative viability of 0.585.
EMC-BAC-2 showed a relative viability of 0.772.
For NCI-H2085, the relative viability was 0.487.
Work on HCC-366 yielded a relative viability of 0.274.
With NCI-H1666 the relative viability was 0.698.
Work on NCI-H596 yielded a relative viability of 0.894.
LK-2 showed a relative viability of 0.274.
Cell Line NCI-H2087 has a relative viability of 0.207.
NCI-H1648 was tested, and the relative viability was 0.368.
For SK-MES-1, the relative viability was 0.321.
COR-L23 was tested, and the relative viability was 0.408.
For COR-L 105, the relative viability was 0.523.
For LOU-NH91, the relative viability was 0.744.
ChaGo-K-1 was tested, and the relative viability was 0.432.
NCI-H2170 showed a relative viability of 0.426.
In the case of NCI-H2405, the relative viability is reported as 0.671.
In the case of NCI-H522, the relative viability is reported as 0.641.
NCI-H2009 gave a relative viability of 0.33.
With NCI-H661 the relative viability was 0.48.
SK-LU-1 showed a relative viability of 0.478.
NCI-H2023 gave a relative viability of 0.166.

Same assay, conditions: first compound 31.62 µM
NCI-H2342 showed a relative viability of 0.815.
In the case of NCI-H727, the relative viability is reported as 0.84.
With NCI-H1650 the relative viability was 0.378.
NCI-H1993 was tested, and the relative viability was 0.601.
With SW 1573 the relative viability was 0.582.
Cell Line NCI-H838 has a relative viability of 0.42.
In the case of LCLC-103H, the relative viability is reported as 0.719.
Cell Line NCI-H520 has a relative viability of 0.299.
Work on NCI-H2126 yielded a relative viability of 0.608.
With EMC-BAC-2 the relative viability was 1.03.
In the case of NCI-H2085, the relative viability is reported as 0.576.
Work on HCC-366 yielded a relative viability of 0.389.
NCI-H1666 was tested, and the relative viability was 0.712.
With NCI-H596 the relative viability was 1.06.
LK-2 was tested, and the relative viability was 0.288.
Cell Line NCI-H2087 has a relative viability of 0.279.
NCI-H1648 was tested, and the relative viability was 0.487.
In the case of SK-MES-1, the relative viability is reported as 0.286.
With H3255 the relative viability was 0.65.
